Results on 5 compounds are retold here after paper PMC10581189, “Cesin, a short natural variant of nisin, displays potent antimicrobial activity against major pathogens despite lacking two C-terminal macrocycles” (Microbiology Spectrum, 2023).

≈ marks a conversion by molar mass, not a printed value. Where two headings read alike, the source gives them in different places. Ends that are not written are not given here. Bounds are passed on as bounds.

The subject of data set [1] is L. lactis MG1363. In words: Agar well diffusion assay of cesin analogs. It counts as cell-based, Lactococcus lactis. Conditions: for antimicrobial activity compared to cesin: L. lactis MG1363, 30°C overnight, triplicate, Fig. 5B, 6B, S1. On the procedure: (§1) An overnight culture of test strains was added at 0.1% (vol/vol) into melted GM17 agar at 45°C and poured in plates. After agar solidification, wells of 8 mm were bored and filled with 30 µL of the lantibiotic solution. When necessary, the lantibiotic was activated with 5 µL of nisP added directly into the well. Peptides were resuspended in 0.05% aqueous acetic acid solution and the cesin amount was determined using the NanoDrop (Thermo Scientific) calibrated with the extinction coefficient predicted by ExPASy (http://web.expasy.org/protparam/). The agar plates were incubated at 30°C overnight, after which, the zones of inhibition were measured. Zone diameters were measured in millimeters and recorded as area of the zone (πr^2) minus the area of the well (πr^2) in millimeters. Where necessary, cesin was compared with nisin and nisin(1–22). Assays were performed in triplicate.

The test system of data set [2] is E. faecium. In words: Agar well diffusion assay of cesin analogs. The format is cell-based, Enterococcus faecium. Conditions: triplicate, Fig. 5B, S1. On the procedure:
as §1

The nature of data set [3]: Thermal stability (residual antimicrobial activity). It counts as physicochemical. How it is done:
as §1

For data set [4], the system named is Lactococcus lactis MG1363.
Data set [5] concerns Listeria monocytogenes LMG10470.
For data set [6], the system named is Listeria monocytogenes TT82E.
Data set [7] has as its system Listeria monocytogenes LK132.
Data set [8] has as its system Bacillus cereus CH-85.
In data set [9] the test system is Staphylococcus aureus LMG10147.
Data set [10] has as its system Staphylococcus aureus LMG15975 (MRSA).
Data set [11] deals with Enterococcus faecium LMG11423.
Data set [12] concerns Enterococcus faecium LMG16003 (VRE).
Data set [13] has as its system Enterococcus faecalis LMG16216 (VRE).
Data set [14] concerns nisin resistance protein (NSR). Conditions: 30 µL 0.1 mg/mL peptide, agar well, L. lactis NZ9000 (pNSR) vs L. lactis NZ9000 (pEmpty); three biological replicates; Fig. 8A.
The target of data set [15] is proteinase K (Parengyodontium album, UniProt P06873). In words: Stability against proteinase K (residual antimicrobial activity). Conditions: 1 mg/mL proteolytic enzyme (pH 7.2), relative antimicrobial activity against L. lactis MG1363, agar well; three biological replicates; Fig. 8B.
Data set [16] has as its system sheep erythrocytes. In words: Hemolytic activity assay. The format is cell-based. Conditions: sheep erythrocytes 2% (vol/vol) in PBS, up to 64 µg/mL, 37°C for 40 min, absorbance 420 nm relative to Triton X-100, triplicate; Fig. 9. How it is done:
The hemolytic activity of cesin and nisin was determined as previously described ([65]). Briefly, fresh sheep blood (Sigma-Aldrich) was washed with 0.1 M PBS (pH 7.4; Sigma-Aldrich) three times to remove plasma (500 × g for 5 min), and then the erythrocytes were collected and diluted 1:50 in PBS. The lantibiotics were then added at final concentrations of 64, 32, 16, 8, 4, 2, and 0 µg/mL in PBS to wells containing 2% (vol/vol) washed erythrocytes. The cells were incubated at 37°C for 40 min, then centrifuged for 5 min at 3,100 g. The supernatants were transferred to a 96-well plate, and the absorbance was measured at a wavelength of 420 nm with a Synergy HT microplate reader (BioTek, Lucerne, Switzerland). The absorbance relative to the positive control, which was treated with 0.1% Triton X-100, was defined as the percentage of hemolysis. The analysis was carried out in triplicate.

proteinase K, sequence (P06873 106-384): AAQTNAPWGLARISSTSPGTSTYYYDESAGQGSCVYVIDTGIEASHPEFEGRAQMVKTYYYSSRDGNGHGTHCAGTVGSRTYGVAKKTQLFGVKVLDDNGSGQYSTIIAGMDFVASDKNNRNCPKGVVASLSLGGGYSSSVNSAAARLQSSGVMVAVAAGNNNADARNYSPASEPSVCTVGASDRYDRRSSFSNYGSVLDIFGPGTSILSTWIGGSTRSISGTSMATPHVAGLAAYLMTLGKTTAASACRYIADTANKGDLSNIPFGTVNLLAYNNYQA

Turning to “ITSWSLCTAGCITGRIMGCNKTATCHCSIHVSK (also: bicyclic or more (positions not given here)) [cesin NK, cesin-nisin(23–34) hybrid]”, the “antimicrobial activity compared to cesin” value in data set [1] and in data set [2] was “significant loss of antimicrobial activity” each time.
In general, MIC refers to the smallest concentration in the dilution series that meets the test's criterion for growth inhibition. Lower therefore signals greater potency. In the case of `C=C1NC(=O)[C@H](Cc2c[nH]c3ccccc23)NC(=O)C(NC(=O)C(=CC)NC(=O)[C@@H](N)[C@@H](C)CC)CSC[C@@H](C(=O)NC2C(=O)N[C@@H](C)C(=O)NCC(=O)N[C@H](C(=O)N[C@H](C(=O)NC3C(=O)NCC(=O)N[C@@H](CCCNC(=N)N)C(=O)N[C@@H]([C@@H](C)CC)C(=O)N[C@@H](CCSC)C(=O)NCC(=O)N[C@H](C(=O)N[C@@H](CC(N)=O)C(=O)N[C@@H](CCCCN)C(=O)O)CSC3C)[C@@H](C)CC)CSC2C)NC(=O)[C@H](CC(C)C)NC1=O` (stereo partly shown) [Cesin], the “thermal stability, time stable” value in data set [3] is given as “stable for up to 4 h”. Moreover, the MIC came to 0.08 µg/mL (≈ 0.0376 µM) in data set [4]; 2.56 µg/mL (≈ 1.2 µM) in [5]; 5.13 µg/mL (≈ 2.41 µM) in data set [6]; 10.25 µg/mL (≈ 4.82 µM) in data set [7]; 20.50 µg/mL (≈ 9.64 µM) in data set [8]; 5.13 µg/mL (≈ 2.41 µM) in [9]. Moreover, the MIC in data set [10] was found to be 5.13 µg/mL (≈ 2.41 µM); in [11], 5.13 µg/mL (≈ 2.41 µM); in data set [12] it was 10.25 µg/mL (≈ 4.82 µM); in data set [13] it was 5.13 µg/mL (≈ 2.41 µM). In addition, the “resistance to the cleavage action of NSR” value in [14] was “fully resistant”. The “stability against proteinase K” value in [15] was “more resistant to proteinase K”.
For `C=C(NC(=O)[C@@H](NC(=O)[C@H](Cc1c[nH]cn1)NC(=O)[C@@H](NC(=O)[C@H](CO)NC(=O)[C@@H]1CSC(C)C2NC(=O)[C@H](C)NC(=O)C(NC(=O)[C@H](CCCCN)NC(=O)[C@H](CCSC)NC(=O)[C@H](CC(N)=O)NC(=O)[C@@H]3CSC(C)C(NC(=O)[C@H](CCCCN)NC(=O)[C@@H]4CSC(C)C(NC(=O)[C@@H]5CSCC(NC(=O)C(=CC)NC(=O)[C@@H](N)[C@@H](C)CC)C(=O)N[C@@H]([C@@H](C)CC)C(=O)NC(=C)C(=O)N[C@@H](CC(C)C)C(=O)N5)C(=O)N5CCC[C@H]5C(=O)NCC(=O)N4)C(=O)NCC(=O)N[C@@H](C)C(=O)N[C@@H](CC(C)C)C(=O)N[C@@H](CCSC)C(=O)NCC(=O)N3)C(C)SC[C@H](NC2=O)C(=O)N[C@@H](CC(N)=O)C(=O)N1)[C@@H](C)CC)C(C)C)C(=O)N[C@@H](CCCCN)C(=O)O` (stereo partly shown) [Nisin], in data set [3] (incubated at 22°C, 55°C, 75°C, 95°C, read-out antimicrobial activity against L. lactis MG1363 (agar well), three biological replicates, Fig. 7A, B), the “thermal stability, time stable” value is listed as “stable for up to 4 h”. In addition, the hemolysis result in data set [16] is listed as “comparable to that of nisin”. Further, in data set [14], the “resistance to the cleavage action of NSR” value is recorded as “inactivated”.
Turning to “ITSWSLCTAGCITGRIMGCNMKTATCHCSIHVSK (also: bicyclic or more (positions not given here)) [cesin NMK, cesin(1–20)-nisin(21–34) hybrid]”, in data set [1] (Fig. 5B (L. lactis MG1363 and E. faecium, sentence names no strain)), the “antimicrobial activity compared to cesin NK” value was “significantly higher antimicrobial activity”. The “antimicrobial activity compared to cesin” value in data set [1] and in [2] was “significant loss of antimicrobial activity” throughout.
`C=C1NC(=O)[C@H]([C@@H](C)CC)NC(=O)C(NC(=O)C(=CC)NC(=O)[C@@H](N)[C@@H](C)CC)CSC[C@@H](C(=O)NC2C(=O)N3CCC[C@H]3C(=O)NCC(=O)N[C@H](C(=O)N[C@@H](CCCCN)C(=O)NC3C(=O)NCC(=O)N[C@@H](C)C(=O)N[C@@H](CC(C)C)C(=O)N[C@@H](CCSC)C(=O)NCC(=O)N[C@H](C(=O)N[C@@H](CC(N)=O)C(=O)N[C@@H](CCSC)C(=O)N[C@@H](CCCCN)C(=O)O)CSC3C)CSC2C)NC(=O)[C@H](CC(C)C)NC1=O` (stereo partly shown) [Nisin(1–22), reference compound]: the MIC in data set [4] was 1.28 µg/mL (≈ 0.598 µM); in data set [5] it was 41.00 µg/mL (≈ 19.2 µM); in [6] it was 10.25 µg/mL (≈ 4.79 µM); in data set [7], 41.00 µg/mL (≈ 19.2 µM); in data set [8], above 41.00 µg/mL; in data set [9], 20.50 µg/mL (≈ 9.58 µM). For the same compound, the MIC in data set [10] was 20.50 µg/mL (≈ 9.58 µM); in data set [11], 41.00 µg/mL (≈ 19.2 µM); in [12], above 41.00 µg/mL; in data set [13], above 41.00 µg/mL.
